Read-outs that look alike come from different tables or passages of the source.
Assays:
in vivo = conditions: male, Beagle, dog
Method: The purpose of the study was to assess the pharmacokinetics and absolute bioavailability of dexmedetomidine in a group of five Beagle dogs (males, each aged 5 to 8 months and weighing between 7.5 and 9.2 kg) following sublingual spray administration of the different formulations described in Tables 1 and 2.
For sublingual administration, a spray application was administered by one depression of a pump device into the oral cavity under the tongue. In order to ensure proper pump priming, two actuations were performed prior to dosing. Following dose administration, serial blood samples were collected form each subject animal by venipuncture of a jugular vein as follows: 0 (predose), 0.083, 0.167, 0.25, 0.33, 0.5, 1, 2, and 6 hours post-sublingual dose. […] Blood samples were collected in vacutainer tubes containing K2EDTA as anticoagulant, and derived plasma samples were stored frozen until analyzed.

[1] = human, cited from earlier work
[2] = human, cited from earlier work; remark: listed apart in the source

Cmax (in vivo): 0.914 ng/mL
Tmax (in vivo): 0.333 h
Structure (SMILES): Cc1cccc([C@H](C)c2cnc[nH]2)c1C [dexmedetomidine, 5-[(1S)-1-(2,3-dimethylphenyl)ethyl]-1H-imidazole]
apparent elimination half-life ([1]; buccal): 1.9 h
time of maximum concentration ([1]; buccal): approximately 1.5 h
mean buccal bioavailability ([1]; solution held in mouth without swallowing): 81.8%
absolute bioavailability ([2]; i.m. administration): 73%
time to maximum concentration in blood ([2]; i.m. administration): 1.6 to 1.7 h
mean elimination half-life ([2]; i.m. dosing): 3 h
mean elimination half-life ([2]; i.v. dosing): 1.5 h
absolute bioavailability ([2]; transdermal administration): 88%
mean elimination half-life ([2]; transdermal administration): 5.6 h
time to maximum concentration in blood ([2]; transdermal administration): 6 h
